Results on 28 compounds are retold here after ChEMBL document CHEMBL3879881, “Substituted pyrazolyl compounds for the treatment of inflammation” (2005).

The target in the test is T1, Inhibitor of nuclear factor kappa-B kinase subunit beta (Homo sapiens, UniProt O14920).
T1 sequence (O14920 whole entry): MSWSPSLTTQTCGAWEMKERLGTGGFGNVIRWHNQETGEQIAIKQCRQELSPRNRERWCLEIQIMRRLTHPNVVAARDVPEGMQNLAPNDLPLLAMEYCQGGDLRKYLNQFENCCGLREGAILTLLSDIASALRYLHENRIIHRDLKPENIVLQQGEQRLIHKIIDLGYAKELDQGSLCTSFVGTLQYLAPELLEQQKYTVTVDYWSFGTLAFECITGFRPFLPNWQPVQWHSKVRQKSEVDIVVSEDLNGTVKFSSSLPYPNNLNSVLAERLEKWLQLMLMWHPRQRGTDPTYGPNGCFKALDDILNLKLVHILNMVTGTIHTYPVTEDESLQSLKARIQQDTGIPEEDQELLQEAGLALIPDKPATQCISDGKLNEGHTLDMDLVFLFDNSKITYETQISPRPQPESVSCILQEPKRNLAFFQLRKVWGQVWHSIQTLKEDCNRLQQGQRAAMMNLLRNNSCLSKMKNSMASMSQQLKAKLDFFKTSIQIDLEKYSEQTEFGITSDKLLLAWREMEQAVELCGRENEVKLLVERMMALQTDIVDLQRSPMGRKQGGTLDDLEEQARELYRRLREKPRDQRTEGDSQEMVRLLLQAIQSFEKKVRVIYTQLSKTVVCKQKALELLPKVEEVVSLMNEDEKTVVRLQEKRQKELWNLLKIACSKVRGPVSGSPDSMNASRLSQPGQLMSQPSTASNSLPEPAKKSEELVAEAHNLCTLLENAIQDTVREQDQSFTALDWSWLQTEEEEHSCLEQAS
As to the kind of experiment: Inhibition of human recombinant C-terminal FLAG-epitope-tagged IKK2 expressed in baculovirus using biotinylated IkappaBalpha peptide as substrate assessed as decrease in [gamma-33P]-ATP incorporation in substrate after 30 mins by scintillation counting method.

Consider `NC(=O)c1nn(-c2ccc(S(N)(=O)=O)cc2)c2c1CCc1ccc(NS(=O)(=O)c3cc(C(F)(F)F)cc(C(F)(F)F)c3)cc1-2`, for which the IC50 was in the range of 1000 to 10000 nM.

Consider `NC(=O)c1nn(-c2ccc(S(N)(=O)=O)cc2)c2c1CCc1ccc(NS(=O)(=O)c3ccccc3Cl)cc1-2`, for which the IC50 was in the range of 10000 to 100000 nM.

As to `COc1ccc(S(=O)(=O)Nc2ccc3c(c2)-c2c(c(C(N)=O)nn2-c2ccc(S(N)(=O)=O)cc2)CC3)cc1OC`, the IC50 is 10000 to 100000 nM.

Consider `NC(=O)c1nn(-c2ccc(S(N)(=O)=O)cc2)c2c1CCc1ccc(NS(=O)(=O)c3ccccc3)cc1-2`, for which the concentration for half-maximal inhibition (IC50) fell in the range of 1000 to 10000 nM.

As for `NC(=O)c1nn(-c2ccc(S(N)(=O)=O)cc2)c2c1CCc1ccc(NC(=O)c3ccccc3Br)cc1-2`, the IC50 is no more than 1000 nM.

As for `Cc1cccc(S(=O)(=O)Nc2ccc3c(c2)-c2c(c(C(N)=O)nn2-c2ccc(S(N)(=O)=O)cc2)CC3)c1`, the IC50 lay within 10000 to 100000 nM.

In the case of `NC(=O)c1nn(-c2ccc(S(N)(=O)=O)cc2)c2c1CCc1ccc(NC(=O)c3ccccc3F)cc1-2`, the IC50 was no more than 1000 nM.

Take `N#Cc1cccc(C(=O)Nc2ccc3c(c2)-c2c(c(C(N)=O)nn2-c2ccc(S(N)(=O)=O)cc2)CC3)c1`: the IC50 is no more than 1000 nM.

Take `NC(=O)c1nn(-c2ccc(S(N)(=O)=O)cc2)c2c1CCc1ccc(NC(=O)c3c(Cl)cccc3Cl)cc1-2`: the IC50 is no more than 1000 nM.

On to `NC(=O)c1nn(-c2ccc(S(N)(=O)=O)cc2)c2c1CCc1ccc(NC(=O)C34CC5CC(CC(C5)C3)C4)cc1-2`, for which the half-maximal inhibitory concentration (IC50) lay within 1000 to 10000 nM.

On to `NC(=O)c1nn(-c2ccc(S(N)(=O)=O)cc2)c2c1CCc1ccc(NS(=O)(=O)c3ccc(Br)cc3F)cc1-2`, for which the IC50 lay within 1000 to 10000 nM.

On to `NC(=O)c1nn(-c2ccc(S(N)(=O)=O)cc2)c2c1CCc1ccc(NC(=O)c3cccnc3)cc1-2`, for which the IC50 is no more than 1000 nM.

With `NC(=O)c1nn(-c2ccc(S(N)(=O)=O)cc2)c2c1CCc1ccc(NC(=O)c3cccnc3Cl)cc1-2`, the IC50 is no more than 1000 nM.

Regarding `NC(=O)c1nn(-c2ccc(S(N)(=O)=O)cc2)c2c1CCc1ccc(NS(=O)(=O)c3cccc(Cl)c3)cc1-2`, the IC50 fell in the range of 1000 to 10000 nM.

With `NC(=O)c1nn(-c2ccc(S(N)(=O)=O)cc2)c2c1CCc1ccc(NS(=O)(=O)c3cccc(Br)c3)cc1-2`, the IC50 is 1000 to 10000 nM.

`CS(=O)(=O)c1ccc(-n2nc(C(N)=O)c3c2-c2cc(N)ccc2CC3)cc1`: the IC50 lay in the range of 1000 to 10000 nM.

With `COc1ccccc1C(=O)Nc1ccc2c(c1)-c1c(c(C(N)=O)nn1-c1ccc(S(N)(=O)=O)cc1)CC2`, the IC50 is 10000 to 100000 nM.

For `NC(=O)c1nn(-c2ccc(S(N)(=O)=O)cc2)c2c1CCc1ccc(NC(=O)c3ccccc3C(F)(F)F)cc1-2`, the half-inhibitory concentration (IC50) was no more than 1000 nM.

As to `COc1cccc(CC(=O)Nc2ccc3c(c2)-c2c(c(C(N)=O)nn2-c2ccc(S(N)(=O)=O)cc2)CC3)c1`, the IC50 lay within 1000 to 10000 nM.

Take `NC(=O)c1nn(-c2ccc(S(N)(=O)=O)cc2)c2c1CCc1ccc(NC(=O)c3cccc(Br)c3)cc1-2`: the IC50 was no more than 1000 nM.

In the case of `NC(=O)c1nn(-c2ccc(S(N)(=O)=O)cc2)c2c1CCc1ccc(NC(=O)c3cccc(C(F)(F)F)c3)cc1-2`, the concentration for half-maximal inhibition (IC50) was in the range of 1000 to 10000 nM.

Turning to `Cc1cccc(C(=O)Nc2ccc3c(c2)-c2c(c(C(N)=O)nn2-c2ccc(S(N)(=O)=O)cc2)CC3)c1`, the half-maximal inhibitory concentration (IC50) is no more than 1000 nM.

Turning to `NC(=O)c1nn(-c2ccc(S(N)(=O)=O)cc2)c2c1CCc1ccc(NC(=O)c3ccccc3OC(F)(F)F)cc1-2`, the IC50 was no more than 1000 nM.

Turning to `NC(=O)c1nn(-c2ccc(S(N)(=O)=O)cc2)c2c1CCc1ccc(NC(=O)c3cccc(Cl)c3)cc1-2`, the IC50 is no more than 1000 nM.

`Cc1ccccc1C(=O)Nc1ccc2c(c1)-c1c(c(C(N)=O)nn1-c1ccc(S(N)(=O)=O)cc1)CC2`: the IC50 was no more than 1000 nM.

Consider `NC(=O)c1nn(-c2ccc(S(N)(=O)=O)cc2)c2c1CCc1ccc(NC(=O)c3cccc(Cl)c3Cl)cc1-2`, for which the IC50 is no more than 1000 nM.

With `COc1cccc(C(=O)Nc2ccc3c(c2)-c2c(c(C(N)=O)nn2-c2ccc(S(N)(=O)=O)cc2)CC3)c1`, the IC50 is no more than 1000 nM.

In the case of `NC(=O)c1nn(-c2ccc(S(N)(=O)=O)cc2)c2c1CCc1ccc(NC(=O)c3ccccc3Cl)cc1-2`, the IC50 is no more than 1000 nM.
